According to US8278337B2, “Substituted pyridines that are JNK inhibitors” (Merck Sharp & Dohme, priority 2006, dated 2012):
Several values for one entry are separate records, joined by “and”; a condition that tells them apart may be missing. Equal entries are not always repeated.

Biological target: JNK1 (Homo sapiens, UniProt P45983)
Experiment: DELFIA kinase assay, JNK1
Assay type: biochemical
Conditions: DELFIA, biotinylated GST-ATF2 substrate, 10 minute pre-incubation, final ATP 7 uM
Protocol: Assay DELFIA (Dissociation Enhanced Lanthanide Fluorescence Immuno-Assay) Assay:
Before initiation of kinase reactions, compounds were pre-incubated with the enzyme for 10 minutes. Pre-incubation reactions contained 50 mM HEPES pH 7.3, 10 mM MgCl2, 1 mM DTT, 75 mM NaCl, 1 mM EDTA, 1 mM EGTA, 0.01% CHAPS, 2 nM JNK1, 6 ug/mL biotinylated GST-ATF2, 0.1 mg/ml BSA, 5% DMSO and 0-100 μM compound in a total volume of 40 μL. After a 10 minute room temperature pre-incubation, 10 μL of 35 μM ATP was added to start the reaction (final concentration of ATP=7 uM). Reactions were incubated at room temperature for 30 minutes. A small aliquot (10 uL) was taken and quenched by adding into 190 uL of DELFIA Assay buffer containing 100 mM EDTA. The amount of phosphate transferred to biotinylated GST-ATF2 was measured using the Dissociation Enhanced Lanthanide Fluorescence Immuno-assay (DELFIA) from Perkin Elmer according to manufacturers protocol. Briefly, biotinylated GST-ATF2 was captured on streptavidin coated plates for 1 hour, washed twice, then incubated for 1 hour with a 1:1000 dilution of rabbit-anti-phospho-ATF2 antibody and a 1:3500 dilution of Europium-labeled anti-rabbit secondary antibody. Free antibody was removed with six washes, Europium was dissociated from the antibody, and Europium fluorescence was measured using an excitation wavelength of 340 nm and an emission wavelength of 615 nm. JNK2 and JNK3 kinase reactions were carried out similarly, with the exception that the final concentration of ATP was 4 uM and 2 uM, respectively.

Sequence of JNK1 (P45983 whole entry, species assumed): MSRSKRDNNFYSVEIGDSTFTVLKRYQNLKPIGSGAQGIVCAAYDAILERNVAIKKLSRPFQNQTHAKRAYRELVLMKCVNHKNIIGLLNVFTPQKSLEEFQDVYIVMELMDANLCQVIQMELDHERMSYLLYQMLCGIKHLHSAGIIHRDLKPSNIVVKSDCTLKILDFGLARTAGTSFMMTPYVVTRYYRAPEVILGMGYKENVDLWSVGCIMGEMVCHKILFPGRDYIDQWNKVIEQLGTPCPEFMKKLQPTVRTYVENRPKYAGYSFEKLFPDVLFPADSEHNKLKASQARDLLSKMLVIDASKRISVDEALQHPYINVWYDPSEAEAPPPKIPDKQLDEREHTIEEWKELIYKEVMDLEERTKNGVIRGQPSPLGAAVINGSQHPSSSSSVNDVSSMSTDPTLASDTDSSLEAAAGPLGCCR

Row | IC50 | Structure (SMILES)
1 | 102 to 959 nM | COC(=O)[C@H](C)NC(=O)c1cccc(C(=O)NCc2ccc3nc(N)sc3c2)n1 [Compound 75]
2 | 4 to 97 nM | CC(C)NC(=O)c1cccc(C(=O)NCc2ccc3nc(NC(C)C)sc3c2)n1 [Compound 201]
3 | > 1000 nM | CCOC(=O)N1CCC(NC(=O)c2cccc(NCc3cccnc3)n2)CC1 [Compound 391]
4 | 102 to 959 nM | CC(C)NC(=O)c1cccc(C(=O)NCc2nc3ccccc3[nH]2)n1 [Compound 106]
5 | 4 to 97 nM | CC(C)NC(=O)c1cccc(C(=O)NCc2cccc(-c3cccc(S(C)(=O)=O)c3)c2)n1 [Compound 191]
6 | 4 to 19 nM and 4 to 97 nM | CNS(=O)(=O)c1ccc(-n2cc(CNC(=O)c3cccc(C(=O)NC(C)C)n3)cn2)cc1 [Compound 244]
7 | > 1000 nM and 1030 to 10000 nM | CC(C)NC(=O)c1cccc(C(=O)Nc2ccc3nccnc3c2)n1 [Compound 91]
8 | 102 to 959 nM | CC(C)NC(=O)c1cccc(C(=O)NCc2ccc(-c3ccc(S(C)(=O)=O)cc3)cc2)n1 [Compound 196]
9 | 4 to 97 nM | CC(C)NC(=O)c1cccc(C(=O)NCc2cnn(-c3cnc4[nH]cnc4c3)c2)n1 [Compound 219]
10 | > 1000 nM | CC(C)CNC(=O)c1cccc(C(=O)NCc2ccc3nc(N)sc3c2)n1 [Compound 64]
11 | 4 to 97 nM | CC(C)NC(=O)c1cccc(C(=O)NCc2cnn(-c3ccc(Cl)cc3)c2)n1 [Compound 133]
12 | 102 to 959 nM | CC(C)NC(=O)c1cccc(C(=O)NCc2cncc(Br)c2)n1 [Compound 254]
13 | 102 to 959 nM | CC(C)NC(=O)c1cccc(C(=O)NCc2cnn(-c3ncccn3)c2)n1 [Compound 160]
14 | 4 to 97 nM | CS(=O)(=O)c1ccc(-n2cc(CNC(=O)c3cccc(C(=O)NC4CCCCC4)n3)cn2)cc1 [Compound 77]
15 | 102 to 959 nM | CCCNC(=O)c1cccc(C(=O)NCc2ccc3nc(N)sc3c2)n1 [Compound 65]
16 | > 1000 nM and 1030 to 10000 nM | CC(C)NC(=O)c1cccc(C(=O)NCc2ccnn2-c2ccc(S(C)(=O)=O)cc2)n1 [Compound 310]
17 | 1030 to 10000 nM and > 1000 nM | O=C(NCc1cnn(-c2cccc(C(F)(F)F)c2)c1)c1cccc(N2CCOCC2)n1 [Compound 345]
18 | > 1000 nM | CCOC(=O)N1CCC(NC(=O)c2cccc(NCCc3ccncc3)n2)CC1 [Compound 393]
19 | 102 to 959 nM | CC(C)NC(=O)c1cccc(C(=O)NCc2cnn(-c3cncnc3)c2)n1 [Compound 145]
20 | 4 to 97 nM | Cc1cc(NC(=O)c2cccc(C(=O)NCc3cnn(-c4ccc(S(C)(=O)=O)cc4)c3)n2)no1 [Compound 78]
21 | 4 to 97 nM | CC(C)NC(=O)c1cccc(C(=O)NCc2cnn(-c3ccc([S+](C)[O-])cc3)c2)n1 (centres unmarked) [Compound 154]
22 | 4 to 97 nM | CC(C)NC(=O)c1cccc(C(=O)NCc2cccc(-c3ccc(S(C)(=O)=O)cc3)c2)n1 [Compound 192]
23 | > 1000 nM and 1030 to 10000 nM | O=C(Nc1cccnc1)c1cccc(-n2cc(I)cn2)n1 [Compound 288]
24 | 102 to 959 nM | CC(C)NC(=O)c1cccc(C(=O)N[C@H](C)c2ccc(O)cc2)n1 [Compound 123]

Row | IC50 | Structure (SMILES)
25 | 102 to 959 nM | Cc1nc2cc(CNC(=O)c3cccc(C(=O)NC(C)C)n3)ccc2[nH]1 [Compound 108]
26 | > 1000 nM | CSc1nccc(N2CCC(NC(=O)c3cccc(C(=O)NCc4ccc(S(C)(=O)=O)cc4)n3)CC2)n1 [Compound 274]
27 | 102 to 959 nM | CC(C)(C)c1cnn(-c2cccc(C(=O)NCc3ccc(S(C)(=O)=O)cc3)n2)c1 [Compound 336]
28 | > 1000 nM | Nc1nc2ccc(CNC(=O)c3cccc(NCc4ccccc4)n3)cc2s1 [Compound 263]
29 | > 1000 nM and 1030 to 10000 nM | CC(C)NC(=O)c1cccc(C(=O)NCc2nc3ccccc3n2C)n1 [Compound 107]
30 | 102 to 959 nM | COc1cccc2ccc(C(=O)NCc3ccc(S(C)(=O)=O)cc3)nc12 [Compound 383]
31 | 4 to 97 nM | N#Cc1ccccc1N1CCC(NC(=O)c2cccc(C(=O)NCc3ccc4nc(N)sc4c3)n2)CC1 [Compound 10]
32 | 102 to 959 nM | CC(C)C(=O)Nc1cccc(C(=O)NCc2cnn(-c3cccc(C(F)(F)F)c3)c2)n1 [Compound 354]
33 | > 1000 nM | Nc1nc2ccc(CNC(=O)c3cccc(Cl)n3)cc2s1 [Compound 261]
34 | 4 to 97 nM | CC(C)NC(=O)c1cccc(C(=O)NCc2ccc3sc(NC(N)=O)nc3c2)n1 [Compound 87]
35 | 102 to 959 nM | CS(=O)(=O)c1ccc(-n2cc(CNC(=O)c3cccc(-n4cccn4)n3)cn2)cc1 [Compound 293]
36 | 4 to 97 nM | CS(=O)(=O)c1ccc(-n2cc(CNC(=O)c3cccc(-n4cc(I)cn4)n3)cn2)cc1 [Compound 292]
37 | > 1000 nM and 1030 to 10000 nM | Cc1cnc(CNC(=O)c2cccc(C(=O)NC(C)C)n2)cn1 [Compound 92]
38 | 4 to 19 nM and 4 to 97 nM | CC(C)NC(=O)c1cccc(C(=O)NCc2cnn(-c3ccc(S(=O)(=O)N4CCNCC4)cc3)c2)n1 [Compound 245]
39 | 102 to 959 nM | COc1ccc(-c2cccc(C(=O)NCc3ccc(S(C)(=O)=O)cc3)n2)c(F)c1 [Compound 331]
40 | 102 to 959 nM | CC(C)NC(=O)c1cccc(C(=O)NCc2ccc(-c3ccccn3)s2)n1 [Compound 118]
41 | > 1000 nM | COc1cccc(C(=O)NCc2ccc3nc(N)sc3c2)n1 [Compound 267]
42 | 4 to 97 nM | Cc1nc2cc(-n3cc(CNC(=O)c4cccc(C(=O)NC(C)C)n4)cn3)ccc2[nH]1 [Compound 146]
43 | > 1000 nM | Nc1nc2ccc(CNC(=O)c3cccc(C(=O)NCCc4ccccc4)n3)cc2s1 [Compound 27]
44 | 1030 to 10000 nM and > 1000 nM | CC(C)NC(=O)c1cccc(C(=O)NCc2ccccn2)n1 [Compound 101]
45 | 102 to 959 nM | CCOC(=O)N1CCC(NC(=O)c2cccc(C(=O)NCc3ccc(S(C)(=O)=O)cc3)n2)CC1 [Compound 43]
46 | 102 to 959 nM | CC(C)NC(=O)c1cccc(C(=O)NCc2ccc(N3CCCC3)nc2)n1 [Compound 114]
47 | > 1000 nM | CS(=O)(=O)c1ccc(CNC(=O)c2cccc(C(=O)NC3CCN(S(=O)(=O)Cc4ccccc4)CC3)n2)cc1 [Compound 61]
48 | 102 to 959 nM | CC(C)CCNC(=O)c1cccc(C(=O)NCc2ccc3nc(N)sc3c2)n1 [Compound 71]

Row | IC50 | Structure (SMILES)
49 | 4 to 97 nM | CC(C)NC(=O)c1cccc(C(=O)NCc2cnn(-c3ccc4nccn4c3)c2)n1 [Compound 210]
50 | 1030 to 10000 nM and > 1000 nM | Cc1nn(C)c(C)c1CNC(=O)c1cccc(C(=O)NC(C)C)n1 [Compound 102]
51 | 102 to 959 nM | CS(=O)(=O)c1ccc(CNC(=O)c2cccc(-c3ccc4c(c3)OCO4)n2)cc1 [Compound 332]
52 | > 1000 nM and 1030 to 10000 nM | C[C@@H](CO)NC(=O)c1cc(-c2ccccc2)cc(C(=O)NCc2ccc(S(C)(=O)=O)cc2)n1 [Compound 407]
53 | > 1000 nM | CN1CCC(NC(=O)c2cccc(C(=O)NCc3ccc4nc(N)sc4c3)n2)CC1 [Compound 29]
54 | 1030 to 10000 nM and > 1000 nM | Cc1ccn(-c2cccc(C(=O)NCc3ccc(S(C)(=O)=O)cc3)n2)n1 [Compound 324]
55 | 102 to 959 nM | CC(C)NC(=O)c1cccc(C(=O)NCc2ccc(S(C)(=O)=O)cc2)n1 [Compound 88]
56 | > 1000 nM | CCOC(=O)N1CCC(NC(=O)c2cccc(Nc3ccc4ncccc4c3)n2)CC1 [Compound 389]
57 | > 1000 nM and 1030 to 10000 nM | CCOC(=O)N1CCC(NC(=O)c2cccc(NC(=O)Cc3ccc(S(C)(=O)=O)cc3)n2)CC1 [Compound 402]
58 | 102 to 959 nM | CC(C)NC(=O)c1cccc(C(=O)NCc2ccc3c(c2)OCO3)n1 [Compound 89]
59 | 102 to 959 nM | CC(C)NC(=O)c1cccc(C(=O)NCc2cccnc2)n1 [Compound 93]
60 | 4 to 97 nM | Nc1nc2ccc(CNC(=O)c3cccc(C(=O)NC4CCCCC4)n3)cc2s1 [Compound 12]
61 | 102 to 959 nM | CC(C)C[C@@H](CO)NC(=O)c1cccc(C(=O)NCc2ccc3nc(N)sc3c2)n1 [Compound 21]
62 | > 1000 nM | CCOC(=O)N1CCC(NC(=O)c2cccc(Nc3ccc(N4CCOCC4)cc3)n2)CC1 [Compound 390]
63 | 4 to 97 nM | CC(C)NC(=O)c1cccc(C(=O)NCc2cnn(-c3cccc(F)c3)c2)n1 [Compound 139]
64 | 102 to 959 nM | Cc1nc2ccc(CNC(=O)c3cccc(C(=O)NC(C)C)n3)cc2n1C [Compound 128]
65 | > 1000 nM and 1030 to 10000 nM | CC(C)C(=O)N(C(=O)C(C)C)c1cccc(C(=O)NCc2cnn(-c3cccc(C(F)(F)F)c3)c2)n1 [Compound 364]
66 | 4 to 97 nM | CC(C)NC(=O)c1cc(O)cc(C(=O)NCc2cnn(-c3ccc4nccnc4c3)c2)n1 [Compound 436]
67 | 1030 to 10000 nM and > 1000 nM | CS(=O)(=O)c1ccc(CNC(=O)c2cccc(-n3cnc(Br)c3)n2)cc1 [Compound 327]
68 | 102 to 959 nM | CC(C)NC(=O)c1cccc(C(=O)NCc2ccc(-c3ccc(S(C)(=O)=O)cc3)nc2)n1 [Compound 181]
69 | > 1000 nM and 1030 to 10000 nM | CCNC(=O)c1cc(-c2cccs2)cc(C(=O)NCc2ccc(S(C)(=O)=O)cc2)n1 [Compound 415]
70 | 102 to 959 nM | Cc1cccc(-c2ccc(CNC(=O)c3cccc(C(=O)NC(C)C)n3)cn2)c1 [Compound 174]
71 | 102 to 959 nM | CC(C)NC(=O)c1cccc(C(=O)NCc2ccc(-c3ccc(Cl)cc3)nc2)n1 [Compound 182]
72 | > 1000 nM | CCOC(=O)N1CCC(NC(=O)c2cccc(NCC3CCNCC3)n2)CC1 [Compound 395]

Row | Structure (SMILES) | IC50
73 | CCNC(=O)Oc1cccc2ccc(C(=O)NCc3ccc(S(C)(=O)=O)cc3)nc12 [Compound 384] | > 1000 nM and 1030 to 10000 nM
74 | CC(C)NC(=O)c1cccc(C(=O)NCC2CCN(c3ccc(C#N)cc3)CC2)n1 [Compound 420] | > 1000 nM and 1030 to 10000 nM
